Results taken from paper PMC9511049, “Further investigation of blockade effects and binding affinities of selected natural compounds to immune checkpoint PD-1/PD-L1” (Frontiers in Oncology, 2022).
“And” between values parts separate entries of the source, which are not always exact repeats. Equal values may be shown once.

What was measured:
PD-1/PD-L1 interaction = target: T1, PD-1/PD-L1 interaction (Homo sapiens, UniProt Q9NZQ7); test: PD-1/PD-L1 blockade assay (pair ELISA); assay type: biochemical; details: for blockade effect on the PD-1/PD-L1 interaction (in words): test samples at 10 and 100 μM
T1 construct: purchased ACRO Biosystems
T1 sequence (Q9NZQ7 19-238 limits assumed): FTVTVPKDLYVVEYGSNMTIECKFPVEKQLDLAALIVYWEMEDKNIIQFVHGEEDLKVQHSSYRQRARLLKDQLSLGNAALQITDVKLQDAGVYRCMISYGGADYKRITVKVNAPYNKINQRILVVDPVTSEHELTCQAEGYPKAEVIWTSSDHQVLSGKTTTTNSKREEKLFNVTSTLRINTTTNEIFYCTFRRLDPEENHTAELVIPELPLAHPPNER

human PD-L1 protein = target: T2, human PD-L1 protein (Homo sapiens, UniProt Q9NZQ7); test: PD-L1 binding assay with SPR (Biacore T200); details: for kon: association rate, read-out: PD-L1 Ka; for Kd: immobilized human PD-L1 (Fc Tag)
T2 construct: Fc; purchased ACRO Biosystems
T2 sequence (Q9NZQ7 19-290): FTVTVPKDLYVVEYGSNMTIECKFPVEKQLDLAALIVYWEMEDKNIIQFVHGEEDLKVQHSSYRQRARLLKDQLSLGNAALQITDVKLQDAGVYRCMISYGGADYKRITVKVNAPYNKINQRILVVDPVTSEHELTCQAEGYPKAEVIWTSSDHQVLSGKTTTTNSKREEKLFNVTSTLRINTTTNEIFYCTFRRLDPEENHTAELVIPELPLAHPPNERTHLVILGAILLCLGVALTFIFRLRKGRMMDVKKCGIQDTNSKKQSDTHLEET

human PD-1 protein = target: T3, human PD-1 protein (Homo sapiens, UniProt Q15116); test: PD-1 binding assay with SPR (Biacore T200); details: for kon: association rate, read-out: PD-1 Ka; for Kd: immobilized human PD-1 (Fc Tag)
T3 construct: Fc; purchased ACRO Biosystems
T3 sequence (Q15116 25-288): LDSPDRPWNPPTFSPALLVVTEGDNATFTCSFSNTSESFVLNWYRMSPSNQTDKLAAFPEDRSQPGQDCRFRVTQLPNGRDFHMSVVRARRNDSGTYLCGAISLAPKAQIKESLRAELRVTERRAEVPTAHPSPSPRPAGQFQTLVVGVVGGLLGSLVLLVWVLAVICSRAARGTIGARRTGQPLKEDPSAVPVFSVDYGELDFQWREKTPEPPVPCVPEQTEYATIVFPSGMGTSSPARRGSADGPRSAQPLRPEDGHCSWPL
Method: The PD-1/PD-L1 binding affinity of test natural compounds was measured on a SPR Biacore T200 instrument (GE Healthcare; Marlborough, MA, USA). Human PD-L1and PD-1 proteins (both with a Fc Tag) were purchased from ACRO Biosystems (Newark, DE, USA). Carboxymethylated CM 5 SPR chips were purchased from GE Healthcare (Marlborough, MA, USA). The SPR binding channels were set as: Cell-1, blank immobilization; Cell-2, human PD-L1 protein was immobilized by the injection of protein solution (40 μg/mL) in sodium acetate buffer (10 mM; pH 4.5); Cell-3, human PD-1 protein was immobilized by the injection of protein solution (40 μg/mL) in sodium acetate buffer (10 mM; pH 5.0). Approximately, 5500 and 4500 RU of human PD-1 and PD-L1 proteins, respectively, were immobilized on the flow cells with an amine coupling method.

PD-1/PD-L1 = system: PD-1/PD-L1; design: method as in PMID 30068796; details: homogenous AlphaLISA assay; read-out: IC50 of PD-1/PD-L1 blockade; cited from earlier work

Row | blockade of the PD-1/PD-L1 interaction (PD-1/PD-L1 interaction; compound at 100 μM) | Kd (human PD-L1 protein) | blockade of the PD-1/PD-L1 interaction (PD-1/PD-L1 interaction; compound at 10 μM) | kon (human PD-1 protein) | Kd (human PD-1 protein) | Compound | kon (human PD-L1 protein) | other results
1 |  | 37.9 µM |  |  |  | Oc1ccc(/C=C/c2cc(O)cc(O)c2)cc1 [resveratrol] |  | koff (dissociation rate constant) to PD-L1 (human PD-L1 protein): 0.06435 s⁻¹
2 | 58.6% |  |  |  |  | CO[C@H]1/C=C/O[C@@]2(C)Oc3c(C)c(O)c4c(c3C2=O)C2=NC3(CCN(CC(C)C)CC3)NC2=C(NC(=O)/C(C)=C\C=C\[C@H](C)[C@H](O)[C@@H](C)[C@@H](O)[C@@H](C)[C@H](OC(C)=O)[C@@H]1C)C4=O [Rifabutin, rifabutin, reference compound] |  | binding affinity to PD-L1 protein (in words) (human PD-L1 protein): not detectable; binding affinity to PD-1 protein (in words) (human PD-1 protein): not detectable; IC50 (PD-1/PD-L1): 25 µM
3 |  | 26.2 µM |  | 410 M⁻¹ s⁻¹ | 1.82 µM | O=c1oc2c(O)c(O)cc3c(=O)oc4c(O)c(O)cc1c4c23 [EA, ellagic acid] |  | blockade effect on the PD-1/PD-L1 interaction (in words) (PD-1/PD-L1 interaction): not detected
4 | 39.7% |  |  |  |  | O=c1oc2cc(O)ccc2c2ccc(O)cc12 [urolithin A] |  | binding affinity to PD-L1 protein (in words) (human PD-L1 protein): not detectable; binding affinity to PD-1 protein (in words) (human PD-1 protein): not detectable
5 | 36.9% | 1.21 µM | 11.0% |  | 1.46 µM | O=C(OC[C@H]1O[C@@H](OC(=O)c2cc(O)c(O)c(OC(=O)c3cc(O)c(O)c(O)c3)c2)[C@H](OC(=O)c2cc(O)c(O)c(OC(=O)c3cc(O)c(O)c(O)c3)c2)[C@@H](OC(=O)c2cc(O)c(O)c(OC(=O)c3cc(O)c(O)c(O)c3)c2)[C@@H]1OC(=O)c1cc(O)c(O)c(OC(=O)c2cc(O)c(O)c(O)c2)c1)c1cc(O)c(O)c(OC(=O)c2cc(O)c(O)c(O)c2)c1 [TA, tannic acid] |  | 
6 | 63.4% | 33 µM and 32.9 µM | 4.1% | 504 M⁻¹ s⁻¹ | 0.304 µM and 0.303 µM | O=c1c(O)c(-c2ccc(O)cc2)oc2cc(O)cc(O)c12 [kaempferol] | 5460 M⁻¹ s⁻¹ | binding affinity to PD-1 protein relative to PD-L1 protein (human PD-1 protein; PD-1 stronger than PD-L1): 100 fold
7 |  |  |  |  |  | O=C1O[C@H]2[C@@H]3OC(=O)c4cc(O)c(O)c(O)c4-c4c(O)c(O)c5oc(=O)c6c(c(O)c(O)c7oc(=O)c4c5c76)-c4c(cc(O)c(O)c4O)C(=O)OC[C@H]3OC(O)[C@@H]2OC(=O)c2cc(O)c(O)c(O)c2-c2c1cc(O)c(O)c2O (mixture of isomers) [punicalagin] |  | activity in the PD-1/PD-L1 blockade assay (in words) (PD-1/PD-L1 interaction; earlier observation of the authors, concentration not given): not active; binding capacity to PD-1/PD-L1 proteins (in words) (human PD-L1 protein; protein not specified further (PD-1/PD-L1 proteins), earlier observation of the authors): detectable binding capacity

Row | Compound | blockade of the PD-1/PD-L1 interaction (PD-1/PD-L1 interaction; compound at 100 μM) | Kd (human PD-L1 protein) | blockade of the PD-1/PD-L1 interaction (PD-1/PD-L1 interaction; compound at 10 μM) | kon (human PD-1 protein) | Kd (human PD-1 protein) | kon (human PD-L1 protein) | other results
8 | O=c1cc(-c2ccc(O)cc2)oc2cc(O[C@@H]3O[C@H](CO)[C@@H](O)[C@H](O)[C@H]3O)cc(O)c12 [cosmosiin] | 55.8% | 3.32 µM |  |  |  | 785 M⁻¹ s⁻¹ | selectivity of binding (PD-L1 versus PD-1) (human PD-L1 protein): selective binding to the PD-L1 protein; koff (dissociation rate constant) to PD-L1 (human PD-L1 protein): 0.00261 s⁻¹
9 | Cc1c(COc2cc(OCc3cccc(C#N)c3)c(CN3C[C@H](O)C[C@@H]3C(=O)O)cc2Cl)cccc1-c1ccc2c(c1)OCCO2 [BMS1166, reference compound] |  |  | 99.3% |  |  |  | 
10 | O=C(OC[C@H]1O[C@@H](OC(=O)c2cc(O)c(O)c(O)c2)[C@H](OC(=O)c2cc(O)c(O)c(O)c2)[C@@H](OC(=O)c2cc(O)c(O)c(O)c2)[C@@H]1OC(=O)c1cc(O)c(O)c(O)c1)c1cc(O)c(O)c(O)c1 [PGG, pentagalloyl glucose] |  | 2.23 µM |  | 3940 M⁻¹ s⁻¹ | 27.2 µM | 413 M⁻¹ s⁻¹ | blockade effect on the PD-1/PD-L1 interaction (in words) (PD-1/PD-L1 interaction): not detected
